Test results reported in patent US20010044445A1, “AZOLE INHIBITORS OF CYTOKINE PRODUCTION” (priority 1999, published 2001).
pIC50: −log10 of the molar value.

What was measured:
[1] = tested on: Human peripheral blood mononuclear cells; test: Human Concanavalin-A Proliferation Assay (Con HU Assay); assay type: cell-based; conditions: Homo sapiens, PBMC, concanavalin-A stimulated human PBMC; for inhibition at 10 µM / inhibition at 1 µM / inhibition at 100 µM: 72 h, 3 days, read-out: % Inhibition of proliferation (at concentrations of 1,10, or 100 μm); for inhibition at 10 µM: concentration 10 μm (in parentheses in the cell); for pIC50: tritiated thymidine; for inhibition at 1 µM: concentration 1 μm (in parentheses in the cell); for inhibition at 100 µM: concentration 100 μm (in parentheses in the cell)
Procedure, shortened: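 Histopaque-isolated human PBMC (50,000/well) were pre-incubated 15 min with compounds, then stimulated with concanavalin-A at 2.5 μg/ml final for 3 days at 37 °C, 5% CO2. Proliferation measured by 6 h pulse with 0.5 μCi/well [3H]thymidine and beta counting.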

| melting point [°C] | Structure (SMILES) | inhibition at 10 µM [1] [%] | pIC50 [1] | inhibition at 1 µM [1] [%] | inhibition at 100 µM [1] [%] |
| --- | --- | --- | --- | --- | --- |
| 192 to 193 | O=C(Nc1ccc(-n2nc(C(F)(F)F)cc2C(F)(F)F)cc1)c1cccc(I)c1 [Example 25, N-[4-[3,5-bis(trifluoromethyl)-1H-pyrazol-1-yl]phenyl]-3-iodobenzamide] | 100 | 6.40 | – | – |
| 158 to 160 | CCC(NC(=O)OCc1ccccc1)C(=O)Nc1ccc(-n2nc(C(F)(F)F)cc2C(F)(F)F)cc1 (stereo not shown) [Example 28, phenylmethyl [1-[[[4-[3,5-bis(trifluoromethyl)-1H-pyrazol-1-yl]phenyl]amino]carbonyl]propyl]carbamate] | – | – | 12 | – |
| 177 to 178 | O=C(Nc1ccc(-n2nc(C(F)(F)F)cc2C(F)(F)F)cc1)C1CC=CCC1 (stereo not shown) [Example 29, N-[4-[3,5-bis(trifluoromethyl)-1H-pyrazol-1-yl]phenyl]-3-cyclohexene-1-carboxamide] | 100 | 7.29 | – | – |
| 194 to 195 | O=C(Nc1ccc(F)cc1)c1ccc(-n2nc(C(F)(F)F)cc2C(F)(F)F)cc1 [Example 30, 4-[3,5-bis(trifluoromethyl)-1H-pyrazol-1-yl]-N-(4-fluorophenyl)benzamide] | – | – | 6 | – |
| 203 to 204 | O=C(Nc1ccc(-n2nc(C(F)(F)F)cc2C(F)(F)F)cc1)Nc1cccc([N+](=O)[O-])c1 [Example 31, N-[4-[3,5-bis(trifluoromethyl)-1H-pyrazol-1-yl]phenyl]-N′-(3-nitrophenyl)urea] | – | 5.39 | – | 100 |
| 201 to 202 | O=C(Nc1ccc(F)cc1)Nc1ccc(-n2nc(C(F)(F)F)cc2C(F)(F)F)cc1 [Example 32, N-[4-[3,5-bis(trifluoromethyl)-1H-pyrazol-1-yl]phenyl]-N′-(4-fluorophenyl)urea] | – | 5.07 | – | 100 |
| 109 to 110 | CC1(C(=O)Nc2ccc(-n3nc(C(F)(F)F)cc3C(F)(F)F)cc2)CC1 [Example 35, N-[4-[3,5-bis(trifluoromethyl)-1H-pyrazol-1-yl]phenyl]-1-methylcyclopropanecarboxamide] | – | – | 65 | – |
| 235 to 236 | Cc1c(NC(=O)Nc2ccc(-n3nc(C(F)(F)F)cc3C(F)(F)F)cc2)cccc1[N+](=O)[O-] [Example 40, N-[4-[3,5-bis(trifluoromethyl)-1H-pyrazol-1-yl]phenyl]-N′-(2-methyl-3-nitrophenyl)urea] | – | – | 36 | – |
| 229 to 230 | O=C(Nc1ccc(-n2nc(C(F)(F)F)cc2C(F)(F)F)cc1)Nc1ccc([N+](=O)[O-])cc1Cl [Example 41, N-[4-[3,5-bis(trifluoromethyl)-1H-pyrazol-1-yl]phenyl]-N′-(2-chloro-4-nitrophenyl)urea] | 100 | 6.46 | – | – |
| 230 to 231 | CC(=O)c1ccc(NC(=O)Nc2ccc(-n3nc(C(F)(F)F)cc3C(F)(F)F)cc2)cc1 [Example 42, N-(4-acetylphenyl)-N′-[4-[3,5-bis(trifluoromethyl)-1H-pyrazol-1-yl]phenyl]urea] | – | – | 9 | – |
| 213 to 214 | Cc1ccc(NC(=O)Nc2ccc(-n3nc(C(F)(F)F)cc3C(F)(F)F)cc2)c([N+](=O)[O-])c1 [Example 43, N-[4-[3,5-bis(trifluoromethyl)-1H-pyrazol-1-yl]phenyl]-N′-(4-methyl-2-nitrophenyl)urea] | 98 | 6.45 | – | – |
| 200 to 202 | Cc1ccc(C(=O)Nc2ccc(-n3nc(C(F)(F)F)cc3C(F)(F)F)cc2)s1 [Example 44, N-[4-[3,5-bis(trifluoromethyl)-1H-pyrazol-1-yl]phenyl]-5-methyl-2-thiophenecarboxamide] | – | – | 29 | – |
| > 230 | Cc1cc(Br)cc(C)c1NC(=O)Nc1ccc(-n2nc(C(F)(F)F)cc2C(F)(F)F)cc1 [Example 45, N-[4-[3,5-bis(trifluoromethyl)-1H-pyrazol-1-yl]phenyl]-N′-(4-bromo-2,6-dimethylphenyl)urea] | – | – | 18 | – |
| 249 to 252 | O=C(Nc1ccc(-n2nc(C(F)(F)F)cc2C(F)(F)F)cc1)c1ccc(-n2cccc2)cc1 [Example 46, N-[4-[3,5-bis(trifluoromethyl)-1H-pyrazol-1-yl]phenyl]-4-(1H-pyrrol-1-yl)benzamide] | – | – | 10 | – |
| 225 to 227 | O=C(Nc1ccc(-n2nc(C(F)(F)F)cc2C(F)(F)F)cc1)Nc1ccc(Cl)cc1[N+](=O)[O-] [Example 48, N-[4-[3,5-bis(trifluoromethyl)-1H-pyrazol-1-yl]phenyl]-N′-(4-chloro-2-nitrophenyl)urea] | – | 6.33 | 85 | – |
| 109 to 110 | COc1cccc2cc(C(=O)Nc3ccc(-n4nc(C(F)(F)F)cc4C(F)(F)F)cc3)oc12 [Example 49, N-[4-[3,5-bis(trifluoromethyl)-1H-pyrazol-1-yl]phenyl]-7-methoxy-2-benzofurancarboxamide] | – | – | 9 | – |
| 160 to 162 | O=C(Nc1ccc(-n2nc(C(F)(F)F)cc2C(F)(F)F)cc1)c1cccc(CO)c1 [Example 51, N-[4-[3,5-bis(trifluoromethyl)-1H-pyrazol-1-yl]phenyl]-3-(hydroxymethyl)benzamide] | 100 | 6.11 | – | – |
| 140 to 143 | N#CCC(=O)Nc1ccc(-n2nc(C(F)(F)F)cc2C(F)(F)F)cc1 [Example 52, N-[4-[3,5-bis(trifluoromethyl)-1H-pyrazol-1-yl]phenyl]-2-cyanoacetamide] | – | – | 26 | – |
| 127 to 129 | COC(C(=O)Nc1ccc(-n2nc(C(F)(F)F)cc2C(F)(F)F)cc1)(c1ccccc1)C(F)(F)F (stereo not drawn) [Example 55, N-[4-[3,5-bis(trifluoromethyl)-1H-pyrazol-1-yl]phenyl]-α-methoxy-α-(trifluoromethyl)benzeneacetamide] | – | – | 13 | – |
| 88 to 90 | CCCCCCC(=O)Nc1ccc(-n2nc(C(F)(F)F)cc2C(F)(F)F)cc1 [Example 56, N-[4-[3,5-bis(trifluoromethyl)-1H-pyrazol-1-yl]phenyl]heptanamide] | – | – | 32 | – |
| 108 to 109 | O=C(Nc1ccc(-n2nc(C(F)(F)F)cc2C(F)(F)F)cc1)c1ccccc1Oc1ccccc1 [Example 57, N-[4-[3,5-bis(trifluoromethyl)-1H-pyrazol-1-yl]phenyl]-2-phenoxybenzamide] | – | – | 5 | – |
| 203 to 204 | Nc1cccc(C(=O)Nc2ccc(-n3nc(C(F)(F)F)cc3C(F)(F)F)cc2)c1 [Example 58, 3-Amino-N-[4-[3,5-bis(trifluoromethyl)-1H-pyrazol-1-yl]phenyl]benzamide] | 97 | 6.32 | – | – |
| > 240 | Nc1ccc(C(=O)Nc2ccc(-n3nc(C(F)(F)F)cc3C(F)(F)F)cc2)cc1 [Example 59, 4-Amino-N-[4-[3,5-bis(trifluoromethyl)-1H-pyrazol-1-yl]phenyl]benzamide] | – | – | 54 | – |
